The test system of test [1] is peripheral blood mononuclear cells (=PBMC). Briefly: Th1 and Th2 cytokine profiles produced by mitogen-stimulated PBMC (ELISA), ex vivo. Format: cell-based, human. Here is the method:
The effects of dydrogesterone on Th1 and Th2 cytokine profiles produced by mitogen-stimulated peripheral blood mononuclear cells (=PBMC) were determined. Several studies have pointed to a deviation of cytokine profiles in women when during pregnancy. Pregnancy is associated with a shift towards Th2 bias, evinced by changes in peripheral T cells, by cytokine production by peripheral lymphocytes and by cytokine changes at the maternal-fetal interface. Unexplained recurrent spontaneous abortion (URSA) seems to be associated with a stronger bias towards Th1 cytokines. Women who have earlier been gone through URSA may therefore be regarded as a pre-selected group of patients that will typically respond to an immunological stimulation by showing a Th1 dominated pattern of immune response. The pharmacological test was therefore performed with a suitable URSA group which comprised of women admitted with spontaneous abortion for evacuation, (i) who have had at least two previous unexplained miscarriages, (ii) who were currently undergoing at least a 3rd abortion and (iii) who had been fully investigated. The relationship between habitual abortion and cytokine production response in 54 women with normal pregnancy (and at least 3 previous normal pregnancies) and 23 women with a history of habitual abortion of unexplained aetiology (URSA group) has been investigated. Mitogen-induced stimulation of Peripheral Blood Mononuclear Cells (PBMC): Peripheral blood was obtained by venipuncture from the abortion group on the day of abortion. PBMC is separated by Ficoll-paque (Pharmacia Biotech, Sweden) density gradient centrifugation, suspended in RPMI medium (=“Roswell Park Memorial Institute”-medium; obtained from GIBCO/BRL, USA) containing 10% fetal calf serum, aliquoted into 96 well tissue culture plates at a density of 100.000 cells per well and then stimulated with the mitogen phytohemagglutinin (=PHA, Sigma Chemicals, USA) at a concentration of […] for a period of 96 hours, with autologous placental antigens or with trophoblast antigens. Progesterone, dydrogesterone (Duphaston®) and RU486 (=mifepristone) was added in different combinations as described below. Progesterone was tested at concentrations of […]. RU486 was tested at equivalent concentrations. Culture supernatants were harvested at 96 hours for determination of the levels of cytokines secreted by the PBMC into the supernatants. Cytokine levels were determined in the supernatants by enzyme-linked immunosorbent assay (=ELISA). Protocol of Experimental Samples: Each sample was tested in the following manner: • PBMC+mitogen • PBMC+mitogen+progesterone • PBMC+mitogen+progesterone+RU486 • PBMC+mitogen+dydrogesterone • PBMC+mitogen+dydrogesterone+RU486 • PBMC+mitogen+Carrier • PBMC+mitogen+Carrier+RU486 Determination of cytokine levels by ELISA: Th1 cytokines TNF-α and IFN-γ, and Th2 cytokines IL-4, IL-6 and IL-10 were evaluated in these samples by ELISA using kits that were obtained from Immunotech SA, France. These consisted of “sandwich ELISA”; briefly the first step leads to the capture of the relevant cytokine by monoclonal anti-cytokine antibodies bound to the wells of microtiter plates. In the second step, a second biotinylated monoclonal is added together with streptavidin-enzyme (peroxidase or alkaline phosphatase) conjugate. The biotinylated antibody binds to the solid phase antibody-antigen complex, and in turn, binds the conjugate. After incubation the wells are washed and the binding of the streptavidin-enzyme via biotin is followed by the addition of a chromogenic substrate. The intensity of the coloration produced is proportional to the concentration of the cytokine in the sample. Standard curves are plotted for each of the cytokines using reference recombinant cytokines and the results are read from these curves. The sensitivity of each of the assays is as follows: 5 pg/ml of TNF-α, 0.08 IU/ml of IFN-γ, 5 pg/ml of IL-4 and 5 pg/ml of IL-10. […]

The subject of another test is pregnant mice. Description: murine stress-induced abortion model. The test is classed as in vivo. From the text: The results of the pharmacological test method given above can also be confirmed in an in vivo test model involving pregnant mice. […] Pregnant mice were exposed to ultrasound on day 5 of gestation. This stress increased the abortion rate of these mice from around 12% to 44%. Treatment with dydrogesterone reduced the abortion in a dose-related manner to as low as 5%.

Test [2] relates to Th1 cytokine production to trophoblast. The settings on record: in vitro, women with recurrent pregnancy loss; Choi et al., Human Reproduction 15/1 (2000) 46-59; cited from earlier work.
Setting [3] is: PHA-stimulated PBMC supernatant, ELISA, 96 hours.
Where [4] appears, read: women with spontaneous abortion and habitual abortion.

With `CC(=O)[C@H]1CC[C@H]2[C@@H]3C=CC4=CC(=O)CC[C@@]4(C)[C@@H]3CC[C@]12C` [dydrogesterone], in test [1] (setting [3]), the IFN-γ result was “reduction of IFN-γ”, the “Interleukin 4” value is given as “marked increase” and the “Interleukin 6” value is “marked increase”. For the same compound, in test [1] (PHA-stimulated PBMC, 96 hours, women with spontaneous and habitual abortion), the Th1/Th2 bias entry is on record as “shift from a Th1 towards a Th2 bias”. Besides, in test [1] (setting [4]), the activity of lymphocytes result is reported as “reduced the activity of lymphocytes” and the “release of progesterone induced blocking factor (PIBF)” value is given as “increased release”. For the same compound, the Th1/Th2-cytokine production result with pregnant mice (murine stress-induced abortion model) was “shift from Th1 to Th2-cytokine production”. In the test with pregnant mice (pregnant mice exposed to ultrasound on day 5 of gestation, dose-related, stress raised rate from around 12% to 44%), this compound had an abortion rate not below 5%. Besides, in the test on pregnant mice (pregnant mice exposed to ultrasound stress on day 5 of gestation), the “level of IL-4” value was “increased level”.
Consider `CC(=O)[C@H]1CC[C@H]2[C@@H]3CCC4=CC(=O)CC[C@]4(C)[C@H]3CC[C@]12C` [progesterone], for which the “embryotoxic Th1 cytokine production to trophoblast” value in test [2] is listed as “inhibits”.
